Measurements as given in patent US6472348B1, “Pyridone derivatives and herbicides” (Kumiai Chemical Industry Co., Ltd., priority 1996, dated 2002).

Test system: green foxtail (Se)
Test: Test Example 7: crop plant selectivity by upland field soil treatment (corn), herbicidal effects
Format: in vivo
Parameters: scale not given here
Settings: dose 6.3 g ai/10a, 21st day after application
Experimental: (§1) (Test on Crop Plant Selectivity by Upland Field Soil Treatment)
(§2) In a plastic pot (surface area: 600 cm^2) filled with sand, corn (Ze), green foxtail (Se), pale smartweed (Po), slender amaranth (Am), common lambsquarters (Ch) and China jute (Ab) were sown and covered with soil. […] The plants were then cultured in a green house, and the evaluation of the herbicidal effects and phytotoxicity was conducted on the 21st day after the application in accordance with the standards as identified in Table 47.

Question: With `CCCON=Cc1cc(-c2ccc(C(F)(F)F)n(C)c2=O)c(F)cc1Cl` [Compound 1-188] as the compound, how does the “Herbicidal effects Se” value read?
Answer: 5

Test system: China jute (Ab)
Test: as above
Format: in vivo
Parameters: scale not given here
Settings: dose 6.3 g ai/10a, 21st day after application
Experimental: as §1, §2

Question: How did the “Herbicidal effects Ab” value turn out when `CCCON=Cc1cc(-c2ccc(C(F)(F)F)n(C)c2=O)c(F)cc1Cl` [Compound 1-188] was run?
Answer: 5

Test system: pale smartweed (Po)
Test: as above
Format: in vivo
Parameters: scale not given here
Settings: dose 6.3 g ai/10a, 21st day after application
Experimental: as §1, §2

Question: `CCCON=Cc1cc(-c2ccc(C(F)(F)F)n(C)c2=O)c(F)cc1Cl` [Compound 1-188] was tested. Which “Herbicidal effects Po” value did it give?
Answer: 5

Test system: slender amaranth (Am)
Test: Test Example 4: crop plant selectivity by upland field soil treatment (cotton), herbicidal effects
Format: in vivo
Parameters: scale not given here
Settings: dose 6.3 g ai/10 a, evaluated 21st day after application
Outline: (§3)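 Cotton and weeds (incl. China jute, pale smartweed, slender amaranth) sown in sand-filled pots and covered with soil, then soil-treated. Grown in greenhouse; herbicidal effect and cotton phytotoxicity scored on day 21 after application against a rating standard.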

Question: Which “Herbicidal effects Am” value does the source give for `CCCON=Cc1cc(-c2ccc(C(F)(F)F)n(C)c2=O)c(F)cc1Cl` [Compound 1-188] here?
Answer: 5

Test system: common lambsquarters (Ch)
Test: as above
Format: in vivo
Parameters: scale not given here
Settings: dose 6.3 g ai/10 a, evaluated 21st day after application
Outline: as §3

Question: With `CCCON=Cc1cc(-c2ccc(C(F)(F)F)n(C)c2=O)c(F)cc1Cl` [Compound 1-188] as the compound, how does the “Herbicidal effects Ch” value read?
Answer: 5

Test system: green foxtail (Se)
Test: as above
Format: in vivo
Parameters: scale not given here
Settings: dose 6.3 g ai/10 a, evaluated 21st day after application
Outline: as §3

Question: `CCCON=Cc1cc(-c2ccc(C(F)(F)F)n(C)c2=O)c(F)cc1Cl` [Compound 1-188] was tested. Which “Herbicidal effects Se” value did it give?
Answer: 5

Test system: China jute (Ab)
Test: as above
Format: in vivo
Parameters: scale not given here
Settings: dose 6.3 g ai/10 a, evaluated 21st day after application
Outline: as §3

Question: Which “Herbicidal effects Ab” value does the source give for `CCCON=Cc1cc(-c2ccc(C(F)(F)F)n(C)c2=O)c(F)cc1Cl` [Compound 1-188] here?
Answer: 5

Test system: pale smartweed (Po)
Test: as above
Format: in vivo
Parameters: scale not given here
Settings: dose 6.3 g ai/10 a, evaluated 21st day after application
Outline: as §3

Question: With `CCCON=Cc1cc(-c2ccc(C(F)(F)F)n(C)c2=O)c(F)cc1Cl` [Compound 1-188] as the compound, how does the “Herbicidal effects Po” value read?
Answer: 5

Test system: barnyardgrass (Ec)
Test: Test Example 1: herbicidal effects by paddy field soil treatment;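 note: grade of growth control; 5 = at least 90%; 4 = 70 to 90%; 3 = 50 to 70%; 2 = 30 to 50%; 1 = 10 to 30%; 0 = under 10%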
Format: in vivo
Settings: 100 g of the active ingredient per 10 ares, 21st day after the application, index 0-5 of Table 47
Outline: (§4)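 Flooded paddy-soil pots (3 cm water) sown after puddling/leveling; treatment 100 g a.i./10 ares; greenhouse culture; herbicidal effect rated visually on a scoring scale at 21 d post-application.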

Question: How did the “Herbicidal effects Ec” value turn out when `CCCON=Cc1cc(-c2ccc(C(F)(F)F)n(C)c2=O)c(F)cc1Cl` [Compound 1-188] was run?
Answer: 5

Test system: bulrush (Sc)
Test: as above
Format: in vivo
Settings: 100 g of the active ingredient per 10 ares, 21st day after the application, index 0-5 of Table 47
Outline: as §4

Question: For `CCCON=Cc1cc(-c2ccc(C(F)(F)F)n(C)c2=O)c(F)cc1Cl` [Compound 1-188], which “Herbicidal effects Sc” value is on record?
Answer: 5

Test system: monochoria (Mo)
Test: as above
Format: in vivo
Settings: 100 g of the active ingredient per 10 ares, 21st day after the application, index 0-5 of Table 47
Outline: as §4

Question: How did the “Herbicidal effects Mo” value turn out when `CCCON=Cc1cc(-c2ccc(C(F)(F)F)n(C)c2=O)c(F)cc1Cl` [Compound 1-188] was run?
Answer: 5

Test system: cotton (Go)
Test: Test Example 4: crop plant selectivity by upland field soil treatment (cotton), phytotoxicity
Format: in vivo
Parameters: scale not given here
Settings: dose 6.3 g ai/10 a, evaluated 21st day after application
Outline: as §3

Question: How did the “Phytotoxicity Go” value turn out when `CCCON=Cc1cc(-c2ccc(C(F)(F)F)n(C)c2=O)c(F)cc1Cl` [Compound 1-188] was run?
Answer: 0

Test system: barnyardgrass (Ec)
Test: Test Example 2: herbicidal effects by upland field soil treatment;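 note: grade of growth control; 5 = at least 90%; 4 = 70 to 90%; 3 = 50 to 70%; 2 = 30 to 50%; 1 = 10 to 30%; 0 = under 10%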
Format: in vivo
Settings: 100 g of the active ingredient per 10 ares, evaluated on the 21st day after application
Source text: (§5) (Test on Herbicidal Effects by Upland Field Soil Treatment)

Question: `CCCON=Cc1cc(-c2ccc(C(F)(F)F)n(C)c2=O)c(F)cc1Cl` [Compound 1-188] was tested. Which “Herbicidal effects Ec” value did it give?
Answer: 5

Test system: Digitaria ciliaris (Di)
Test: as above
Format: in vivo
Settings: 100 g of the active ingredient per 10 ares, evaluated on the 21st day after application
Source text: as §5

Question: Which “Herbicidal effects Di” value does the source give for `CCCON=Cc1cc(-c2ccc(C(F)(F)F)n(C)c2=O)c(F)cc1Cl` [Compound 1-188] here?
Answer: 5

Test system: slender amaranth (Am)
Test: as above
Format: in vivo
Settings: 100 g of the active ingredient per 10 ares, evaluated on the 21st day after application
Source text: as §5

Question: For `CCCON=Cc1cc(-c2ccc(C(F)(F)F)n(C)c2=O)c(F)cc1Cl` [Compound 1-188], which “Herbicidal effects Am” value is on record?
Answer: 5

Test system: common lambsquarters (Ch)
Test: as above
Format: in vivo
Settings: 100 g of the active ingredient per 10 ares, evaluated on the 21st day after application
Source text: as §5

Question: For `CCCON=Cc1cc(-c2ccc(C(F)(F)F)n(C)c2=O)c(F)cc1Cl` [Compound 1-188], which “Herbicidal effects Ch” value is on record?
Answer: 5

Test system: rice flatsedge (Ci)
Test: as above
Format: in vivo
Settings: 100 g of the active ingredient per 10 ares, evaluated on the 21st day after application
Source text: as §5

Question: `CCCON=Cc1cc(-c2ccc(C(F)(F)F)n(C)c2=O)c(F)cc1Cl` [Compound 1-188] was tested. Which “Herbicidal effects Ci” value did it give?
Answer: 5

Test system: pale smartweed (Po)
Test: as above
Format: in vivo
Settings: 100 g of the active ingredient per 10 ares, evaluated on the 21st day after application
Source text: as §5

Question: `CCCON=Cc1cc(-c2ccc(C(F)(F)F)n(C)c2=O)c(F)cc1Cl` [Compound 1-188] was tested. Which “Herbicidal effects Po” value did it give?
Answer: 5

Test system: corn (Ze)
Test: Test Example 7: crop plant selectivity by upland field soil treatment (corn), phytotoxicity
Format: in vivo
Parameters: scale not given here
Settings: dose 6.3 g ai/10a, 21st day after application
Experimental: as §1, §2

Question: For `CCCON=Cc1cc(-c2ccc(C(F)(F)F)n(C)c2=O)c(F)cc1Cl` [Compound 1-188], which “Phytotoxicity Ze” value is on record?
Answer: 0

Test system: wheat (Tr)
Test: Test Example 5: crop plant selectivity by upland field soil treatment (wheat), phytotoxicity
Format: in vivo
Parameters: scale not given here
Settings: dose 6.3 g ai/10a, 21st day after application
Experimental: as §1
In a plastic pot (surface area: 600 cm^2) filled with sand, wheat (Tr), Diaitaria ciliaris (Di), green foxtail (Se), pale smartweed (Po), slender amaranth (Am), common lambsquarters (Ch) and China jute (Ab) were sown and covered with soil. […] The plants were then cultured in a green house, and the evaluation of the herbicidal effects and phytotoxicity was conducted on the 21st day after the application in accordance with the standards as identified in Table 47. Symbol—represents “not tested”.

Question: `CCCON=Cc1cc(-c2ccc(C(F)(F)F)n(C)c2=O)c(F)cc1Cl` [Compound 1-188] was tested. Which “Phytotoxicity Tr” value did it give?
Answer: 1
